Where two headings read alike, the source gives them in different places.
Legend:
fungi [1] = assay: Antifungal activity (test not specified); details: compound identified from leaves of Prunus maackii
Cladosporium cucumerinum = assay: TLC bioassay for detection of antimicrobial activity; assay type: cell-based; details: FIG. 3, white areas
Method: A TLC-bioassay of extract from Prunus maackii, P. serotina, and P. mahelab was conducted using three different extraction methods. Periderm tissue was extracted in 80% acetone, in hot water, or in water in an autoclave. Extracts were tested for antimicrobial activity by a thin layer chromatography bioassay on cellulose TLC plates. Samples were separated with, and the plates were developed in, water.
For the TLC bioassay for the detection of antimicrobial activity, 5 μL of the samples (column fractions, suspended in 80% methanol) were applied to Analtech® silica gel (TLC) plates and were developed in a TLC tank (30×20×10 cm) using 100 mL of chloroform:methanol (8.5:1, v/v). Within 24 hours of developing the TLC plates, the plates were evenly sprayed with a dense fungal suspension of C. cucumerinum in ½ strength potato-dextrose broth and then placed in a moist incubation chamber for three days to allow fungal growth.

fungi [2] = details: compound tentatively assigned to HPLC-MS peak around 255 g/mol; cited from earlier work

For `COc1c(O)cc(O)c2c1OC(c1ccccc1)CC2=O` (stereo not drawn) [Dihydrowogonin, 5,7-dihydroxy-8-methoxy-2-phenyl-2,3-dihydrochromen-4-one], the Antifungal activity (fungi [1]) was “antifungal activity”.

In the case of `COc1c(O)cc2oc(-c3ccccc3)c(O)c(=O)c2c1O` [alnusin, 3,5,7-trihydroxy-6-methoxyflavone], the “Fungal inhibition on TLC plate by isolated compounds” value (Cladosporium cucumerinum) is reported as “fungal inhibition”.

For `O=C1C[C@@H](c2ccccc2)Oc2cc(O)cc(O)c21` [pinocembrin], the Antifungal activity (fungi [2]) is given as “antifungal activity”.
